# Experimental data from patent publication US20070082858A1, “Methods and compositions for the prevention of toxic side effects of aminoglycoside medications” (priority 2004, published 2007).
# Tests used:
# [1] = test system: MDCK cells; experiment: GTTR uptake into MDCK cells under TRPV1 agonists/antagonists, cation channel blockers, cations and pH (30-60 seconds, 20° C., FATX fixation, confocal imaging); details: 0.5 or 5 mM La^+++ in HBSS pH 7.3, 30 seconds
# From the text: MDCK cells were used as a model system to test regulation of GTTR uptake by conditions known to produce or modify a cation current through the TRPV1 channel. Conditions tested were varying extracellular calcium concentrations, pH, specific agonists, specific antagonists, and the non-specific cation channel blocker Ruthenium Red. In addition, we pre-mixed PIP2 with GTTR to determine whether that anionic phospholipid, known to bind gentamicin, would alter GTTR uptake. All these assays were done at room temperature (20° C.), for 30 or 60 seconds, and using doses of GTTR of 5 to 10 μg/ml, which are far below the typical therapeutic level of <300 μg/ml. Buffers used for treatment were as described for each experiment. Cells were quickly washed to replace culture medium with treatment buffer, treated as indicated, washed again after treatment, fixed immediately with 4% formaldehyde and 0.5% Triton X-100 (FATX), and washed prior to imaging.
# Methods: Cells were seeded into 8-well coverglass chambers at 3000 cells/well and grown for 5 days.
# Cells were washed three times with the buffer to be used in the particular experiment, treated with GTTR and experimental variable for 30 or 60 seconds at 20° C., precluding endocytosis. Following treatment, cells were rinsed three times with buffer, then fixed and delipidated with 4% formaldehyde plus 0.5% Triton X-100 (FATX) for 45 minutes. Following fixation, cells were rinsed with PBS (Invitrogen, CA) for at least 4-6 times, or until foaming in the suction pipette ceased. In contrast to previous experiments, no FBS was present in the treatment media, allowing for more rapid uptake of the antibiotic-based GTTR.
# MDCK cells were washed with Hank's buffered salt solution (HBSS; Invitrogen, CA), then placed into buffers of varying potassium concentrations. HBSS was mixed with equi-osmolar KCl/HBSS to produce the required K^+ concentrations. Cells were treated with 1 μg/mL GTTR for 1 minute, then washed and fixed as described above.
# Cells were washed with PBS (Invitrogen, CA), then placed into buffers containing varying concentrations of calcium, obtained by mixing HBSS with equimolar CaCl2, each at pH 7.3. Cells were treated with 5 μg/mL of GTTR for 30 seconds, then washed and fixed as above.
# Cells were washed with saline, then treated with 5 μg/mL of GTTR in saline buffers of varying pH for 30 seconds, then washed and fixed as above. Sodium hydroxide and hydrochloric acid were used to alter pH. These experiments were performed in three different saline buffers: (i) PBS (no calcium), (ii) a mixture of […] for a final calcium concentration of 0.32 mM, and (iii) a mixture of three parts PBS to one part HBSS for a final calcium concentration of 0.97 mM.
# Cells were washed three times with Ca^++-free saline (0.9% NaCl), then treated with 5 μg/mL GTTR and one of the following for 30 seconds: TRPV1 agonists (resiniferatoxin [RTX]; or anandamide [AND]; Alexis Biochemicals, San Diego, Calif.); or antagonists (iodo-RTX, or SB 366791; Tocris, Ellisville, Mo.). Cells were then washed in saline and fixed as above.
# Cells were washed three times with Ca^++-free 0.9% NaCl, then treated with 5 μg/mL GTTR and one of the following for 30 seconds: 100 μM Ruthenium Red, 100 μM Ruthenium Red plus one of the TRPV1 agonists or antagonists described above; or lanthanum (La^+++) at 0.5 or 5 mM.
# [2] = test system: MDCK cells; experiment: Gentamicin immunolabeling of MDCK cells incubated with unlabeled gentamicin and La^+++; format: cell-based, canine; details: 0.05, 0.5 and 5 mM La^+++, unlabeled gentamicin 30 seconds
# Protocol: […] Cells were rinsed twice with PBS, fixed with 4% FA, then permeabilized with ice-cold methanol for 5 minutes, and rinsed 3 times with PBS, as described previously (Steyger et al., 2003). Cells were immunoblocked in 10% goat serum in PBS for 30 minutes, and then incubated with 50 μg/mL rabbit anti-gentamicin IgG (American Quaalex, San Clemente, Calif.) for 1 hour. After washing with 1% goat serum in PBS, cells were further incubated with 20 μg/mL Alexa-488-conjugated goat-anti-rabbit IgG antisera (Molecular Probes, Eugene, Oreg.) for 45 minutes, washed, post-fixed with 4% FA for 15 minutes, and washed again. For immunocytochemical controls, the primary IgG were omitted, or adsorbed with excess gentamicin (3 mg/mL) for 30 minutes prior to addition to cells. All wells were imaged using confocal microscopy.
# [3] = test system: OK cells; experiment: GTTR uptake, saturability, time and temperature in OK cells; format: cell-based, opossum
# Protocol: (§1) Both OK and MDCK cells were used in these studies. Both cell lines were treated with GTTR at 1 μg/ml in complete culture medium for two hours at either 37° C. or over ice. These cells were also treated with a dose range of 0 to 4000 μg/ml of unlabeled GT. Cells were washed and imaged live, then fixed with FATX, and washed again with buffer prior to re-imaging (as in FIG. 6, A3). […] Thus, cytoplasmic, but not endosomal, uptake of GTTR was saturable.
# (§2) GTTR treatment: Subconfluent MDCK or OK cells were treated with 1 μg/mL of GTTR, in complete medium, for 2 hours at 37° C. or on ice. (The amount of GTTR is expressed as the weight of the gentamicin moiety within the conjugate.) In competition experiments, MDCK cells were simultaneously treated with unlabeled gentamicin (up to 4 mg/mL) for 2 hours.
# (§3) Fixation, delipidation, and washing: After treatment, cells were washed three times with complete medium, and then immediately imaged live (see below; FIG. 27A), or fixed. […] Alternatively, cells were fixed in 4% formaldehyde alone (FA), washed and imaged (FIG. 27C), prior to delipidated with 0.5% Triton X-100 in PBS, washed thoroughly, and imaged again (FIG. 27D). Control cells were incubated with hydrolyzed TR (at the same concentration as the TR moiety in the GTTR experiments) and then imaged live, or fixed, delipidated, washed and then imaged.
# Both OK and MDCK cells were treated with GTTR at 1 μg/mL in complete culture medium for 2 hours at either 37° C. or over ice. These cells were also treated with a dose range of 0 to 4000 μg/mL of unlabeled GT. Cells were washed and imaged live (as in FIG. 27A), then fixed with FATX, and washed again with PBS prior to re-imaging (as in FIG. 27B). […]
# OK cells were treated with 1 μg/mL of GTTR in complete culture medium, at 37° C. or on ice, for increasing time periods. […] (Note that live images were acquired without washing out GTTR from the extracellular medium, so fluorescence is visible outside the cells.) No endosomes were observed on OK cells treated on ice for 2 hours (FIG. 28, B1 inset). […]
# [4] = test system: MDCK cells; experiment: GTTR uptake, distribution and saturability in MDCK cells (2 hours); format: cell-based, canine
# Protocol: MDCK cells were treated with 1 μg/ml purified GTTR for […] in complete medium at 37° C., then washed 3× with complete medium.
# as §1, §2
# as §3, with “Control cells were incubated with hydrolyzed TR (at the same concentration as the TR moiety in the GTTR experiments) and then imaged live, or fixed, delipidated, washed and then imaged.” left out
# [5] = test system: MDCK kidney cell line; experiment: Fluorescent microplate assay quantifying GTTR uptake; format: cell-based, canine; details: 37° C. for two hours or room temperature for ten minutes
# From the text: A fluorescent microplate assay was developed using the MDCK kidney cell line to quantify the modulation of GTTR uptake by agonists/antagonists of the TRVP1 channel (pH, Ca^2+, RTX, and iodo-RTX).
# [6] = test system: bullfrog saccular explants; experiment: GTTR labeling of bullfrog saccular explants in vitro (specificity, Example 6); format: cell-based, Rana catesbeiana; details: 300 μg/ml GTTR plus 40-fold excess unconjugated GT (12 mg/ml), 30 minutes
# Protocol: Gentamicin sulfate (Sigma; 50 mg/ml in K2CO3, pH 9) and succinimidyl esters of Texas Red (Molecular Probes; 2 mg/ml in dimethyl formamide) were agitated together overnight to produce a gentamicin-Texas red conjugate (GTTR). Typically, 4.4 ml of 50 mg/ml (final volume) gentamicin sulfate (GT) was mixed with 0.6 ml of 2 mg/ml Texas Red esters (TR) to produce an approximately 300:1 molar ratio of GT:GTTR. A high ratio of free gentamicin to TR esters ensures a minimum of unbound TR molecules, and a binding ratio of 1 TR molecule to 1 GT molecule (Sandoval et al. 1998). Gentamicin sulfate has three isoforms with molecular weights of […], (C2) 463.5, and (C1a) 477.6. Texas Red succinimidyl esters have a molecular weight of 817. […]
# For confocal microscopy, excised saccular explants were individually pre-loaded (for 40 minutes) with 50 μM MitoTracker, 50 nM Lysotracker Green, 1 μM NBD-ceramide and 1 μM ERtracker (Molecular Probes) in Wolfe-Quimby amphibian culture media to label lysosomes, Golgi bodies and endoplasmic reticulum, respectively, prior to incubation with 300 μg/ml GT/GTTR for 2 hours. […] For immunocytochemistry of gentamicin, explants were incubated with 300 μg/ml unconjugated gentamicin for 30 minutes or 2 hours, fixed, ice-cold acetone-permeabilized, and processed for indirect fluorescence immunocytochemistry. […]
molecule,measurement,setting,value
"[La+3] [La^+++, Lanthanum]",GTTR uptake,[1],serially decreased
same,intensity of gentamicin immunofluorescence (unconjugated gentamicin uptake),[2],serially decreased
gentamicin [unlabeled GT],cytoplasmic and nuclear GTTR,"[3]; OK cells, 1 μg/ml GTTR 2 hours, 37° C. or ice, unlabeled GT 0 to 4000 μg/ml",serially reduced the amount of GTTR
same,cell morphology,"[3]; OK cells, 4 mg/mL gentamicin, 2 hours",flattening of cells
same,endosomal (vesicular) accumulation of GTTR,"[3]; live cells at 37° C., highest dose of unlabeled GT (4 mg/ml)",not visibly altered
same,cytoplasmic and nuclear GTTR,"[4]; 1 μg/ml GTTR 2 hours, 37° C. or ice, unlabeled GT 0 to 4000 μg/ml",serially reduced the amount of GTTR
same,cell morphology,"[4]; 4 mg/mL gentamicin, 2 hours",flattening of cells
same,GTTR uptake (quantitative microplate fluorescence),[5],reduced GTTR uptake
same,GTTR fluorescence in saccular explants,[6],reduced fluorescence in the sensory epithelium
